Measured values from patent US10561635B2, “Cromolyn compositions for treatment of pulmonary fibrosis” (Respivant Sciences, GmbH, priority 2016, dated 2020).
Like-named read-outs stand apart in the source and are kept apart here.

Experiments:
[1] = Pharmacokinetics of cromolyn sodium in plasma and lung of male BALB/c mice after a single intraperitoneal injection; assay type: in vivo; conditions: single IP injection, 10 mg/kg and 100 mg/kg
Experimental: BALB/c male mice, weighing 22±2 g, were provided by BioLasco Taiwan. All animals were maintained in a well-controlled temperature (20-24° C.) and humidity (30%-70%) environment with 12 hours light/dark cycles. The mice were given free access to a standard lab diet [MFG (Oriental Yeast Co., Ltd., Japan)] and autoclaved tap water.
The solution was administered to the mice by IP injection at concentrations of 10 mg/kg and 100 mg/kg. The dosing volume for both dose strengths was 5 mL/kg.
The mice were sedated under general inhalant anesthesia (3% isoflurane) for blood collection by cardiac puncture. […]
The plasma samples were processed using acetonitrile (ACN) precipitation and analyzed by LC-MS/MS. […] The processed plasma samples were stored at −70° C. until receiving LC-MS/MS analysis, at which time peak areas were recorded, and the concentrations of the test substance in the unknown plasma samples were determined using the respective calibration curve. The reportable linear range of the assay was determined, along with the lower limit of quantitation (LLQ).
Each lung was homogenized in 1.5 mL cold phosphate-buffered saline (PBS) at pH 7.4 for 10 seconds on ice. The lung homogenate was centrifuged at 5,400×g for 15 minutes at 4° C., and the supernatant was subsequently processed using ACN precipitation and analyzed by LC-MS/MS. […]

[2] = PK-01: pharmacokinetics and relative bioavailability of single doses in healthy subjects; assay type: in vivo, human; conditions: for AUC(0-inf): human, plasma, inhaled, 40 mg, 40 mg single dose
Experimental: This was a Phase 1, randomized, open-label, single-centre, dose-ranging, cross-over study conducted in a total of 12 healthy adult subjects of 18-45 years of age.
All study subjects received each study treatment in the morning (at 8:00 am, +/−30 minutes) as a single dose treatment. Prior to each dosing day, subjects were admitted to the clinic in the morning for baseline (pre-dose) assessments. Subjects were required to remain in the clinic for 12 h after study drug administration on each dosing day. Treatment Visits were separated by a washout period of 2 to 5 days.
The duration of the study was one day.
Urine DSCG levels were measured for total DSCG excretion in the urine, and the bioavailability of the DSCG was calculated from the measured levels.
Pharmacokinetic parameters and plasma concentrations are listed and summarized. The summary statistics are presented as the geometric mean, arithmetic mean, arithmetic standard deviation (SD), min, median, max and n. The geometric statistics are not presented for Tmax. Analysis of variance (ANOVA) including terms for subject and treatment are used to calculate point estimates, and confidence intervals (CI) for treatment differences with respect to PK parameters (90% CI) are calculated.

[3] = in vivo, cited from earlier work

## O=C([O-])c1cc(=O)c2c(OCC(O)COc3cccc4oc(C(=O)O)cc(=O)c34)cccc2o1.[Na+] [cromolyn sodium, disodium 5,5′-(2-hydroxypropane-1,3-diyl)bis(oxy)bis(4-oxo-4H-chromene-2-carboxylate)]
[1]
  exposure of cromolyn sodium in the plasma and lungs: Significant exposure
[2]; eFlow 30 L
  AUC(0-inf): 338 ng·h/mL
[2]; eFlow 40 L
  AUC(0-inf): 212 ng·h/mL
[2]; same dose (40 mg)
  lung deposition with the 30 L device compared with the 40 L device, indicated by AUC: surprisingly higher
[3]; listed as cromolyn
  oral bioavailability: about 1%
[3]
  oral bioavailability: ~1%
